According to patent US20110014174A1, “Lysozyme, A Novel Vasodilator of Sepsis that can be inhibited by a Peroxidase and Hydroxyl Radical Scavengers” (UNIVERSITY OF MANITOBA, priority 2007, published 2011):
Entries after “also recorded” stand apart in the source; their conditions may differ. Read-outs that look alike come from different tables or passages of the source.

Experiments:
[1] = tested on: Lzm-S-induced carotid artery vasodilation; experiment: Prevention of Lzm-S-induced vasodilation by pretreatment agents in the carotid artery ring preparation; set-up: species or system canine; details: for blockade of Lzm-S-induced vasodilation: comparison of hydroxyl radical scavengers with peroxidase
[2] = tested on: phenylephrine contracted canine carotid artery ring preparation; experiment: Contraction force and vasorelaxation in phenylephrine contracted canine carotid artery ring preparation
[3] = pretreatment with the agent, human Lzm-S 6.7×10^−7 mol/L, phenylephrine contracted ring

## Nc1ccncc1 [4-aminopyridine]
[1]; [3]
  inhibition of Lzm-S-induced vasodilation (words): none of these inhibitors prevented Lzm-S's vasodilatory response

## O=C(O)CCC/C=C\C/C=C\C/C=C\C/C=C\CCCCCO [20-hydroxyeicosatetraenoic acid]
[1]; [3]
  inhibition of Lzm-S-induced vasodilation (words): none of these inhibitors prevented Lzm-S's vasodilatory response

## CCN(CC)C(=S)S [DECTA, diethyldithiocarbamic acid]
[1]; [3]
  inhibition of Lzm-S-induced vasodilation (words): neither DECTA (10^−2 mol/L), deferoxamine methanesulfonate salt (10^−2 mol/L), nor the reducing agents N-acetylcysteine (10^−3 mol/L), ascorbic acid (10^−4 mol/L), and reduced-glutathione (10^−3 mol/L) were found to inhibit Lzm-S-induced vasodilation

## OO [H2O2, hydrogen peroxide]
[2]; 10^−4 mol/L
  effect of H2O2 on force: progressive vasorelaxation over time
[2]; 10^−5 mol/L
  effect of H2O2 on precontracted force: minimal effect
[2]; higher concentrations, 10^−3 to 10^−1 mol/L
  effect of H2O2 on force: an initial increase in force that was followed by vasorelaxation; also recorded: vasoconstriction that was rapidly followed by vasodilation
[2]; lower concentrations, FIG. 8
  effect of H2O2 on force: vasorelaxation was produced

## [Cl-].[K+] [KCl]
[1]; [3]
  inhibition of Lzm-S-induced vasodilation (words): none of these inhibitors prevented Lzm-S's vasodilatory response

## O=C1C(Nc2ccccc2)=CC(=O)c2ncccc21 [LY 83583, 6-anilino-5,8-quinolinequinone]
[1]; [3]
  inhibition of Lzm-S-induced vasodilation (words): prevented lysozyme induced vasdodilation; also recorded: found to inhibit Lzm-S's effect

## CC(=O)N[C@@H](CS)C(=O)O [N-acetylcysteine]
[1]; [3]
  inhibition of Lzm-S-induced vasodilation (words): neither DECTA (10^−2 mol/L), deferoxamine methanesulfonate salt (10^−2 mol/L), nor the reducing agents N-acetylcysteine (10^−3 mol/L), ascorbic acid (10^−4 mol/L), and reduced-glutathione (10^−3 mol/L) were found to inhibit Lzm-S-induced vasodilation

## O=c1onc2cnc3ccccc3n12 [ODQ, 1H-[1,2,4]oxadiazolo[4,3-a]quinoxalin-1-one]
[1]; [3]
  inhibition of Lzm-S-induced vasodilation (words): prevented lysozyme induced vasdodilation; also recorded: found to inhibit Lzm-S's effect

## Nc1ncnc2c1ncn2C1CCCO1 (centres unmarked) [SQ 22, 536]
[1]; [3]
  inhibition of Lzm-S-induced vasodilation (words): none of these inhibitors prevented Lzm-S's vasodilatory response

## O=C1O[C@H]([C@@H](O)CO)C(O)=C1O [ascorbic acid]
[1]; [3]
  inhibition of Lzm-S-induced vasodilation (words): neither DECTA (10^−2 mol/L), deferoxamine methanesulfonate salt (10^−2 mol/L), nor the reducing agents N-acetylcysteine (10^−3 mol/L), ascorbic acid (10^−4 mol/L), and reduced-glutathione (10^−3 mol/L) were found to inhibit Lzm-S-induced vasodilation

## CN1[C@@H]2CC[C@H]1C[C@@H](OC(=O)C(CO)c1ccccc1)C2 (some centres unmarked) [atropine]
[1]; [3]
  inhibition of Lzm-S-induced vasodilation (words): none of these inhibitors prevented Lzm-S's vasodilatory response

## CC(=O)N[C@H]1[C@H](O[C@H]2[C@H](O)[C@@H](NC(C)=O)C(O)O[C@@H]2CO)O[C@H](CO)[C@@H](O)[C@@H]1O (some centres unmarked) [chitobiose, N,N′-diacetylchitobiose]
[1]; [3]
  inhibition of Lzm-S-induced vasodilation (words): did not block Lzm-S's vasodilatory response

## CC(=O)N[C@H]1[C@H](O[C@H]2[C@H](O)[C@@H](NC(C)=O)C(O)O[C@@H]2CO)O[C@H](CO)[C@@H](O[C@@H]2O[C@H](CO)[C@@H](O)[C@H](O)[C@H]2NC(C)=O)[C@@H]1O (some centres unmarked) [chitotriose, N,N′,N″-triacetylchitotriose]
[1]; [3]
  inhibition of Lzm-S-induced vasodilation (words): did not block Lzm-S's vasodilatory response

## CN(C)CCOC(c1ccccc1)c1ccccc1.Cl [dipheniramine hydrochloride]
[1]; [3]
  inhibition of Lzm-S-induced vasodilation (words): none of these inhibitors prevented Lzm-S's vasodilatory response

## Oc1ccc(O)cc1 [hydroquinone]
[1]
  blockade of Lzm-S-induced vasodilation: 60%
[1]; [3]
  inhibition of Lzm-S-induced vasodilation (words): inhibited the vasodilatory effect of lysozyme
[1]; pretreatment with the agent, human Lzm-S 6.7×10^−7 mol/L, phenylephrine contracted ring, listed as hydroxyquinone
  inhibition of Lzm-S-induced vasodilation (words): inhibitory effect

## OC[C@@H](O)[C@@H](O)[C@H](O)[C@H](O)CO [mannitol]
[1]
  blockade of Lzm-S-induced vasodilation: 60%
[1]; [3]
  inhibition of Lzm-S-induced vasodilation (words): inhibited the vasodilatory effect of lysozyme; also recorded: inhibitory effect

## CN(C)c1ccc2nc3ccc(=[N+](C)C)cc-3sc2c1 [methylene blue]
[1]; [3]
  inhibition of Lzm-S-induced vasodilation (words): inhibited the effect of lysozyme; also recorded: prevented lysozyme induced vasdodilation; also recorded: found to inhibit Lzm-S's effect

## CNC[C@H](O)c1cccc(O)c1 [phenylephrine]
[2]; endothelial denuded preparation
  phenylephrine response: 7.1±0.5 grams
[2]; endothelial intact preparation
  phenylephrine response: 6.7±0.7 grams
[2]; ethanol treated control group, baseline before ethanol
  phenylephrine contraction alone: 8.2±2.6 grams
[2]; indomethacin treated group
  mean increase in contraction from resting force with phenylephrine: 7.5±1.4 grams
[2]; non-indomethacin time control group
  mean increase in force from resting tension with phenylephrine: 6.9±2.7 grams
[2]; phenylephrine 10^−5 mol/L, L-NMMA treated group
  mean increase in resting force caused by phenylephrine: 6.2±2.4 grams
[2]; phenylephrine 10^−5 mol/L, non-L-NMMA treated group
  mean increase in contraction from resting force caused by phenylephrine: 7.1±2.1 grams

## CC(C)NCC(O)COc1cccc2ccccc12 (centres unmarked) [propranolol]
[1]; [3]
  inhibition of Lzm-S-induced vasodilation (words): none of these inhibitors prevented Lzm-S's vasodilatory response

## N[C@@H](CCC(=O)N[C@@H](CS)C(=O)NCC(=O)O)C(=O)O [reduced-glutathione, reduced glutathione]
[1]; [3]
  inhibition of Lzm-S-induced vasodilation (words): neither DECTA (10^−2 mol/L), deferoxamine methanesulfonate salt (10^−2 mol/L), nor the reducing agents N-acetylcysteine (10^−3 mol/L), ascorbic acid (10^−4 mol/L), and reduced-glutathione (10^−3 mol/L) were found to inhibit Lzm-S-induced vasodilation

## CC[N+](CC)(CC)CC [tetraethylammonium]
[1]
  inhibition of Lzm-S-induced vasodilation (words): none of these inhibitors prevented Lzm-S's vasodilatory response

## charybdotoxin
[1]; [3]
  inhibition of Lzm-S-induced vasodilation (words): none of these inhibitors prevented Lzm-S's vasodilatory response

## deferoxamine methanesulfonate salt
[1]; [3]
  inhibition of Lzm-S-induced vasodilation (words): neither DECTA (10^−2 mol/L), deferoxamine methanesulfonate salt (10^−2 mol/L), nor the reducing agents N-acetylcysteine (10^−3 mol/L), ascorbic acid (10^−4 mol/L), and reduced-glutathione (10^−3 mol/L) were found to inhibit Lzm-S-induced vasodilation

## guanosine 3′,5′-cyclic monophosphorothioate, β-phenyl-1,N^2-etheno-8-bromo-Rp-isomer, sodium salt [PKG inhibitor]
[1]; pretreatment with the agent, human Lzm-S 6.7×10^−7 mol/L, phenylephrine contracted ring, listed as protein kinase G inhibitor, sodium salt
  inhibition of Lzm-S-induced vasodilation (words): prevented lysozyme induced vasdodilation
[1]; pretreatment with the agent, human Lzm-S 6.7×10^−7 mol/L, phenylephrine contracted ring, sodium salt
  inhibition of Lzm-S-induced vasodilation (words): found to inhibit Lzm-S's effect

## iberiotoxin: used for inhibition of potassium channels (QFTDVDCSVSKECWSVCKDLFGVDRGKCMGKKCRCYQ; Iberiotoxin; UniProt P24663 1-37, looked up)
[1]; [3]
  inhibition of Lzm-S-induced vasodilation (words): none of these inhibitors prevented Lzm-S's vasodilatory response
